Results reported in US20240246908A1 (ORION CORPORATION, priority 2021, published 2024).

Test system: YAP-TEAD
Test: TEAD inhibition, Hippo Pathway TEAD Reporter MCF-7 luciferase assay
Type: cell-based
Conditions: Homo sapiens, MCF7, 24 h, Hippo Pathway TEAD Reporter MCF-7 cells, luciferase activity after 24 h; read-out: IC50 of the test compounds on YAP-TEAD inhibition (Group)
Experimental: TEAD inhibition was assayed using Hippo Pathway TEAD Reporter—MCF-7 cell line (BPS Bioscience, Catalog #: 60618) which contains firefly luciferase gene under the control of TEAD responsive elements. In the cell line, YAP1 remains in the nucleus inducing constitutive expression of luciferase reporter. Amount of expressed luciferase was detected using ONE-Glo Luciferase Assay System (Promega) and measuring plates with Enspire Multimode Plate Reader (PerkinElmer).
Hippo Pathway TEAD Reporter—MCF-7 cells were plated on white/clear Poly-D-Lysine coated 384 plates (Corning #356660) at the density of 8500 cells/well. Next day test compounds (11 concentrations with 4 replicates) and DMSO control (0.1%) were added to the plate. After 24 h cells were lysed and luciferase activity was measured. The half maximal inhibitory concentration (IC50) of the test compounds on YAP-TEAD inhibition was determined.

Compound | IC50 [nM]
COc1ccc(OC2CCC(C(F)(F)F)CC2)cc1NC(=O)[C@H]1CCC(=O)N1C (stereo partly drawn) [Compound 265, (R)—N-(2-Methoxy-5-((4-(trifluoromethyl)cyclohexyl)oxy)phenyl)-1-methyl-5-oxopyrrolidine-2-carboxamide] | < 50
COc1ccc(OC2CCCC(F)(F)CC2)cc1NC(=O)[C@@H]1CCC(=O)N1C (stereo partly drawn) [Compound 207, (2S)—N-(5-((4,4-Difluorocycloheptyl)oxy)-2-methoxyphenyl)-1-methyl-5-oxopyrrolidine-2-carboxamide] | 50 to 300
COc1ccc(Oc2ccc(F)c(Cl)c2)cc1NC(=O)C1CCC(=O)N1C (centres unmarked) [Compound 223, N-(5-(3-Chloro-4-fluorophenoxy)-2-methoxyphenyl)-1-methyl-5-oxo-pyrrolidine-2-carboxamide] | < 50
COc1ccc(Oc2ccc(C(F)(F)F)cc2)cc1NC(=O)C1CCN(C(C)=O)C1 (centres unmarked) [Compound 412, 1-Acetyl-N-(2-methoxy-5-(4-(trifluoromethyl)phenoxy)phenyl)-pyrrolidine-3-carboxamide] | 301 to 2000
CN1C(=O)CNCC1C(=O)Nc1cc(Oc2ccc(C(F)(F)F)cc2)cc2c1OCC2 (centres unmarked) [Compound 376, 1-Methyl-6-oxo-N-(5-(4-(trifluoromethyl)phenoxy)-2,3-dihydro-benzofuran-7-yl)piperazine-2-carboxamide] | 50 to 300
CN1C(=O)CC[C@@H]1C(=O)Nc1cc(Oc2ccc(C(F)(F)F)cn2)cc2c1OCCC2 [Compound 175, (R)-1-Methyl-5-oxo-N-(6-((5-(trifluoromethyl)pyridin-2-yl)oxy)chroman-8-yl)pyrrolidine-2-carboxamide] | < 50
CN1C(=O)CCC1C(=O)Nc1cc(Oc2cccc(C(F)(F)F)c2)ccc1-c1nnco1 (centres unmarked) [Compound 84, N-(2-(1,3,4-Oxadiazol-2-yl)-5-(3-(trifluoromethyl)phenoxy)phenyl)-1-methyl-5-oxopyrrolidine-2-carboxamide] | 301 to 2000
COc1ccc(Oc2ccc(C(F)(F)F)cc2)cc1NC(=O)C1CCS(=N)(=O)CC1 (centres unmarked) [Compound 381, 1-Imino-N-(2-methoxy-5-(4-(trifluoromethyl)phenoxy)phenyl)-hexahydro-1λ^6-thiopyran-4-carboxamide 1-oxide] | 50 to 300
CN1C(=O)CCC1C(=O)Nc1cc(Oc2cccc(C(F)(F)F)c2)cc2c1OCO2 (centres unmarked) [Compound 34, 1-Methyl-5-oxo-N-(6-(3-(trifluoromethyl)phenoxy)benzo[d][1,3]dioxol-4-yl)-pyrrolidine-2-carboxamide] | 50 to 300
CN1C(=O)NC[C@@H]1C(=O)Nc1cc(Oc2ccc(C(F)(F)F)cn2)cc2c1OCO2 [Compound 181, (R)-3-Methyl-2-oxo-N-(6-((5-(trifluoromethyl)pyridin-2-yl)oxy)benzo-[d][1,3]dioxol-4-yl)imidazolidine-4-carboxamide] | 301 to 2000
COc1ccc(Oc2ccc(C(F)(F)F)cc2)cc1NC(=O)[C@@H]1C[C@H](O)C(=O)N1C [Compound 380, (2S,4S)-4-Hydroxy-N-(2-methoxy-5-(4-(trifluoromethyl)phenoxy)phenyl)-1-methyl-5-oxopyrrolidine-2-carboxamide] | 50 to 300
COc1ccc(Oc2ccc(F)cc2F)cc1NC(=O)C1CCC(=O)N1C (centres unmarked) [Compound 43, N-(5-(2,4-Difluorophenoxy)-2-methoxyphenyl)-1-methyl-5-oxopyrrolidine-2-carboxamide] | 50 to 300
CN1C(=O)CC[C@H]1C(=O)Nc1cc(Oc2ccc(C(F)F)cc2)cc2c1OCC2 [Compound 214, (S)—N-(5-(4-(Difluoromethyl)phenoxy)-2,3-dihydrobenzofuran-7-yl)-1-methyl-5-oxopyrrolidine-2-carboxamide] | < 50
COc1ccc(Oc2ccc(C(F)(F)F)cc2)cc1NC(=O)C1CCC(=O)N1CCC(N)=O (centres unmarked) [Compound 379, 1-(3-Amino-3-oxopropyl)-N-(2-methoxy-5-(4-(trifluoromethyl)-phenoxy)phenyl)-5-oxopyrrolidine-2-carboxamide] | 50 to 300
COc1ccc(Oc2ccc(C(F)(F)F)cc2)cc1NC(=O)C1CN(C)C(=O)N1C (centres unmarked) [Compound 139, N-(2-Methoxy-5-(4-(trifluoromethyl)phenoxy)phenyl)-1,3-dimethyl-2-oxo-imidazolidine-4-carboxamide] | < 50
COc1cc(NC(=O)C2CCC(=O)N2C)cc(Oc2ccc(C(F)(F)F)cn2)c1 (centres unmarked) [Compound 277, N-(3-Methoxy-5-((5-(trifluoromethyl)pyridin-2-yl)oxy)phenyl)-1-methyl-5-oxopyrrolidine-2-carboxamide] | 50 to 300
O=C1CCC(C(=O)Nc2cc(OC3CCC(F)(F)CC3)cc3c2OCC3)CN1 (centres unmarked) [Compound 190, N-(5-((4,4-Difluorocyclohexyl)oxy)-2,3-dihydrobenzofuran-7-yl)-6-oxo-piperidine-3-carboxamide] | 301 to 2000
COc1ccc(O[C@H]2CC[C@@H](C(F)(F)F)CC2)cc1NC(=O)[C@@H]1CCC(=O)N1C [Compound 210, (S)—N-(2-Methoxy-5-(((cis)-4-(trifluoromethyl)cyclohexyl)oxy)phenyl)-1-methyl-5-oxopyrrolidine-2-carboxamide] | < 50

Compound | IC50 [nM]
CN1C(=O)NC[C@H]1C(=O)Nc1cc(Oc2ccc(C(F)(F)F)cc2)ccc1F [Compound 365, (S)—N-(2-Fluoro-5-(4-(trifluoromethyl)phenoxy)phenyl)-3-methyl-2-oxo-imidazolidine-4-carboxamide] | < 50
CCN1C(=O)CCC1C(=O)Nc1cc(Oc2ccc(C(F)(F)F)cc2)ccc1OC (centres unmarked) [Compound 68, 1-Ethyl-N-(2-methoxy-5-(4-(trifluoromethyl)phenoxy)phenyl)-5-oxopyrrolidine-2-carboxamide] | < 50
COc1ccc(OCC2CCC(F)(F)CC2)cc1NC(=O)C1CCC(=O)N1C (centres unmarked) [Compound 206, N-(5-((4,4-Difluorocyclohexyl)methoxy)-2-methoxyphenyl)-1-methyl-5-oxopyrrolidine-2-carboxamide] | < 50
COc1ccc(Oc2ccc(C#N)c(Cl)c2)cc1NC(=O)C1CCC(=O)N1C (centres unmarked) [Compound 309, N-(5-(3-Chloro-4-cyanophenoxy)-2-methoxyphenyl)-1-methyl-5-oxopyrrolidine-2-carboxamide] | 50 to 300
CN1C(=O)CCC1C(=O)Nc1cc(Oc2ccc(C(F)(F)F)cc2)ccc1O (centres unmarked) [Compound 372, N-(2-Hydroxy-5-(4-(trifluoromethyl)phenoxy)phenyl)-1-methyl-5-oxopyrrolidine-2-carboxamide] | 301 to 2000
COc1ccc(Oc2ccc(C(F)(F)F)cn2)cc1NC(=O)[C@H]1CCC(=O)N1C [Compound 283, (R)—N-(2-Methoxy-5-((5-(trifluoromethyl)pyridin-2-yl)oxy)phenyl)-1-methyl-5-oxopyrrolidine-2-carboxamide] | < 50
COc1ccc(Oc2ncc(C(F)(F)F)cc2F)cc1NC(=O)[C@@H]1CNC(=O)N1C [Compound 339, (S)—N-(5-((3-Fluoro-5-(trifluoromethyl)pyridin-2-yl)oxy)-2-methoxyphenyl)-3-methyl-2-oxoimidazolidine-4-carboxamide] | < 50
COc1ccc(Oc2ncc(C(F)(F)F)cc2F)cc1NC(=O)[C@@H]1CCCN1C(C)=O [Compound 358, (S)-1-Acetyl-N-(5-((3-fluoro-5-(trifluoromethyl)pyridin-2-yl)oxy)-2-methoxyphenyl)pyrrolidine-2-carboxamide] | 301 to 2000
COc1ccc(Oc2ccc(C(F)(F)F)cn2)cc1NC(=O)[C@@H]1COC(=O)N1C [Compound 125, (S)—N-(2-Methoxy-5-((5-(trifluoromethyl)pyridin-2-yl)oxy)phenyl)-3-methyl-2-oxooxazolidine-4-carboxamide] | 50 to 300
COc1ccc(/C=C/C2CCC(F)(F)CC2)cc1NC(=O)[C@@H]1CCC(=O)N1C [Compound 24] | 50 to 300
COc1ccc(Oc2cccc(C(F)(F)F)c2)cc1NC(=O)C1CS(=O)(=O)N1C (centres unmarked) [Compound 72, N-(2-Methoxy-5-(3-(trifluoromethyl)phenoxy)phenyl)-2-methyl-1,2-thiaze-tidine-3-carboxamide 1,1-dioxide] | 301 to 2000
CN1C(=O)NCC1C(=O)Nc1cc(Oc2ccc(C(F)F)cc2)cc2c1OCC2 (centres unmarked) [Compound 213, N-(5-(4-(Difluoromethyl)phenoxy)-2,3-dihydrobenzofuran-7-yl)-3-methyl-2-oxoimidazolidine-4-carboxamide] | < 50
CN1C(=O)CCC1C(=O)Nc1cc(OC2CCC(C(F)(F)F)CC2)ccc1F (centres unmarked) [Compound 270, N-(2-Fluoro-5-((4-(trifluoromethyl)cyclohexyl)oxy)phenyl)-1-methyl-5-oxo-pyrrolidine-2-carboxamide] | 50 to 300
COc1ccc(Oc2ccc(C(F)(F)F)cn2)cc1NC(=O)C1(C)CNC(=O)N1C (centres unmarked) [Compound 123, N-(2-Methoxy-5-((5-(trifluoromethyl)pyridin-2-yl)oxy)phenyl)-3,4-dimethyl-2-oxoimidazolidine-4-carboxamide] | 301 to 2000
COc1ccc(Oc2ccc(C(F)(F)F)cc2)cc1NC(=O)[C@@H]1CCC(=O)N1 (stereo in doubt) [Compound 46, N-(2-Methoxy-5-(4-(trifluoromethyl)phenoxy)phenyl)-5-oxopyrrolidine-2-carboxamide] | 301 to 2000
COc1ccc(/C=C/C2CCC(F)(F)CC2)cc1NC(=O)C1CCC(=O)N1C (centres unmarked) [Compound 22, (E)-N-(5-(2-(4,4-Difluorocyclohexyl)vinyl)-2-methoxyphenyl)-1-methyl-5-oxo-pyrrolidine-2-carboxamide] | < 50
CN1C(=O)CCC1C(=O)Nc1cc(Oc2ccc(F)c(F)c2)ccc1-c1ccn(C)n1 (centres unmarked) [Compound 85, N-(5-(3,4-Difluorophenoxy)-2-(1-methyl-1H-pyrazol-3-yl)phenyl)-1-methyl-5-oxopyrrolidine-2-carboxamide] | 301 to 2000
